Data as given in article PMC11528023, “Transport mechanism and structural pharmacology of human urate transporter URAT1” (Cell Research, 2024).

Columns and labels:
[1] = biological target: T1, URAT1EM (Homo sapiens, UniProt Q96S37, A280P/A304R/A323S/A335R/D313K/DEL311-312/DEL60-62/G295A/G309E/G331A/G338L/G65T/I63V/INS307H/L287I/L292P/L321M/L328V/L337V/L341F/L64S/M324V/M330S/M343V/P317I/P333E/Q332K/R291K/R301K/R325K/R342C/S329A/T288I/T289K/T314N/T339D/W294Q/W300R); assay: 14C-urate uptake in HEK293 cells expressing URAT1EM (cryo-EM construct); assay type: cell-based
T1 construct: human URAT1 (residues 3–553), a (GGGGS)3 linker, and C-terminal DARPinoff7; expressed in transfected cells; host or cells: HEK293 cells (ATCC, CRL-3216), transient transfection
T1 sequence (Q96S37 with tags, fused parts or gaps DEL60-62/I63V/L64S/G65T/A280P/L287I/T288I/T289K/R291K/L292P/W294Q/G295A/W300R/R301K/A304R/INS307H/G309E/DEL311-312/D313K/T314N/P317I/L321M/A323S/M324V/R325K/L328V/S329A/M330S/G331A/Q332K/P333E/A335R/L337V/G338L/T339D/L341F/R342C/M343V): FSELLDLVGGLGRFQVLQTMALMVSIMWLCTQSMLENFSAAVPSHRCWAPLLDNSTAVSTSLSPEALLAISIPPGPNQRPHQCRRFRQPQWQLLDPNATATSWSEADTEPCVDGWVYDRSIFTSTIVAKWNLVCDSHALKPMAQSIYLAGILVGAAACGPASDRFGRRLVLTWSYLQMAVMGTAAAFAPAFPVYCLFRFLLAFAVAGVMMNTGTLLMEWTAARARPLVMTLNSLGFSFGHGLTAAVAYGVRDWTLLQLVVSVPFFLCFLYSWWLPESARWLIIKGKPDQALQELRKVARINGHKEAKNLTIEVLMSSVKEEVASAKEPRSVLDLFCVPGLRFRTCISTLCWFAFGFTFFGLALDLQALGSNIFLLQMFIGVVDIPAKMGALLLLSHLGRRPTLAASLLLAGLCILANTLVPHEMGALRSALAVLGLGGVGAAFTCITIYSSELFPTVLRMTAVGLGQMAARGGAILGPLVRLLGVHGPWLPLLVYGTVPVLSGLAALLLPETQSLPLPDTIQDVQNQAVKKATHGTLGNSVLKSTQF
Description: (§1) Data are shown as mean ± SD; n = 3 biological replicates. In a, b, uptake buffer: 20 mM HEPES pH 7.4, 125 mM sodium gluconate, 4.8 mM potassium gluconate, 1.2 mM monobasic potassium phosphate, 1.2 mM magnesium sulfate, 1.3 mM calcium gluconate, and 5.6 mM glucose. c Cryo-EM density maps of URAT1 in the apo and substrate-bound states. […] Putative lipid densities are in light cyan. d Cryo-EM density maps of URAT1 in the drug-bound states. […] Putative lipid densities are in light cyan. e Diagram of URAT1 topology. ECD, extracellular domain. f Structure of URAT1 in the apo state. g Slice view of URAT1 in the apo state, showing the central cavity and opening to the intracellular side.
(§2) Human embryonic kidney (HEK) 293 cells (ATCC, CRL-3216) were seeded onto poly(D-lysine)-coated 96-well plates at a density of 0.3 × 10^5 cells per well and cultured at 37 °C until reaching approximately 70%–80% confluence. The cells were transiently transfected with plasmids encoding the URAT1 WT or mutants using Lipofectamine 3000 (Invitrogen, L3000001), following the manufacturer’s protocol. The transfected cells were cultured at 37 °C for 12 h. Following this, 10 mM sodium butyrate was added, and the cells were further incubated at 30 °C for an additional 24 h. […]

[2] = biological target: T2, URAT1WT (Homo sapiens, UniProt Q96S37); assay: 14C-urate uptake inhibition in HEK293 cells expressing WT URAT1; assay type: cell-based
T2 construct: expressed in transfected cells; host or cells: HEK293 cells (ATCC, CRL-3216), transient transfection with Lipofectamine 3000
T2 sequence (Q96S37 1-553): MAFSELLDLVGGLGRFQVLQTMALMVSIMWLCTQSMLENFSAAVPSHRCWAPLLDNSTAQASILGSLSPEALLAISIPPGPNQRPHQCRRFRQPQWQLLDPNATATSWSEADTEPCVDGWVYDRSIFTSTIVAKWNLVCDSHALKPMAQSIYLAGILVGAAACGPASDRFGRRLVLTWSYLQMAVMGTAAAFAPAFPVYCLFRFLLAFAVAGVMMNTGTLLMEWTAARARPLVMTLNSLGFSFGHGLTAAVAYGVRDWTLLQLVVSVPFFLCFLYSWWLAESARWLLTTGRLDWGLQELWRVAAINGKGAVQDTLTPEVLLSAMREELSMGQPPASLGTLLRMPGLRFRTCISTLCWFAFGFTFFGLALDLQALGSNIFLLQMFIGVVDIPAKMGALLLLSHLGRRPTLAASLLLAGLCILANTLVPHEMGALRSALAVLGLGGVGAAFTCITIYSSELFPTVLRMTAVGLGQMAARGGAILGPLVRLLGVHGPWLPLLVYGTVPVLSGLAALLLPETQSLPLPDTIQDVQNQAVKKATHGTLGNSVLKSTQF
Description: as §1, §2

O=C(c1cc(Cl)c(O)c(Cl)c1)N1CS(=O)(=O)c2ccccc21 [dotinurad]
IC50 [1]: 0.19 µM | IC50 [2]: 0.17 µM
